The values below come from patent US20250099448A1, “HETEROCYCLIC COMPOUNDS” (Hoffmann-La Roche Inc., priority 2022, published 2025).

Usually IC50 stands for the concentration needed to halve the response being measured. Lower therefore signals inhibition by little substance.

Structures are written as SMILES.

This test addresses T1, MAGL protein (Homo sapiens, UniProt Q99685).
T1 sequence (Q99685 1-303): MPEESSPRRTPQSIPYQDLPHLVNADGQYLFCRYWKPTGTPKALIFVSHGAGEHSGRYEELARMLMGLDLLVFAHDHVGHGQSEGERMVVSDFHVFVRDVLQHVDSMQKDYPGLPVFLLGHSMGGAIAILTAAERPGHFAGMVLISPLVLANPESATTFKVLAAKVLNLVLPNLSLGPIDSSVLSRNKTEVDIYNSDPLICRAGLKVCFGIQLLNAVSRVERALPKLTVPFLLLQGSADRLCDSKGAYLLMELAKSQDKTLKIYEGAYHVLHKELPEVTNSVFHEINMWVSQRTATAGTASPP
The test can be described thus: 2-AG assay: MAGL inhibitory activity by hydrolysis of 2-arachidonoylglycerol to arachidonic acid, followed by mass spectrometry. In kind it is biochemical. Conditions: 8 μM 2-arachidonoylglycerol, 15 min preincubation, 30 min reaction at RT, RapidFire MS readout. In a few lines:
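MAGL was preincubated 15 min at RT with compound (12.5 to […], 3-fold steps) in 50 mM TRIS, 1 mM EDTA, 0.01% Tween-20, 2.5% DMSO. The reaction ran 30 min at RT with 8 μM 2-AG. Arachidonic acid was quantified by RapidFire SPE-MS/MS against a d8-arachidonic acid internal standard.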
`O=C(N1CC2(CC(c3nc(C4CC4)n[nH]3)C2)C1)N1CC2(CN(Cc3ccn(CC(F)(F)F)n3)C2)C1` [compound 618]: the half-maximal inhibitory concentration (IC50) was found to be 95.1 nM.

As for `O=C(N1CC2(CC(Oc3ccc(Cl)cn3)C2)C1)N1CC2(CC(c3nc(C4CC4)n[nH]3)C2)C1` [compound 619], the half-maximal inhibitory concentration (IC50) is 0.79 nM.

For `O=C(N1CC2(CC(Cc3ncc(C(F)(F)F)cc3F)C2)C1)N1CC2(CC(c3ncn[nH]3)C2)C1` [compound 620], the IC50 is 187 nM.

In turn, `O=C(N1CC2(CC(Cn3cc(C(F)(F)F)ccc3=O)C2)C1)N1CC2(CC(c3nc(C4(O)CC4)n[nH]3)C2)C1` [compound 621] returned a 50% inhibitory concentration (IC50) of 3.62 nM.

Compound `O=C(N1CC2(CC(Oc3ncc(F)cc3Cl)C2)C1)N1CC2(CC(c3nc(C4CC4)n[nH]3)C2)C1` [compound 622] gave a half-maximal inhibitory concentration (IC50) of 0.63 nM.

`Cn1nc(C2CC2)cc1CN1CC2(C1)CN(C(=O)N1CC3(CC(c4nc(C5CC5)n[nH]4)C3)C1)C2` [compound 623] showed an IC50 of 12.6 nM.

Turning to `O=C(N1CC2(CC(c3nc(C4CC4)n[nH]3)C2)C1)N1CC2(CN(Cc3ncc(C(F)F)s3)C2)C1` [compound 624], it took 8.21 nM to reach half-maximal inhibition (IC50).

For `O=C(N1CC2(CC(c3nc(C4CC4)n[nH]3)C2)C1)N1CC2(CN(Cc3cc(C(F)(F)F)[nH]n3)C2)C1` [compound 625], half-maximal inhibition (IC50) required 8.75 nM.

Consider `O=C(N1CC2(CC(Cc3ccc4ncnn4c3)C2)C1)N1CC2(CC(c3nc(C4(O)CC4)n[nH]3)C2)C1` [compound 626], for which the IC50 came to 56.4 nM.

With `O=C(N1CC2(CC(Cc3cccc(S(=O)(=O)C(F)(F)F)c3)C2)C1)N1CC2(CC(c3nc(C4(F)CC4)n[nH]3)C2)C1` [compound 627], the IC50 amounted to 0.05 nM.

`O=C(N1CC2(CC(c3nc(C4CC4)n[nH]3)C2)C1)N1CC2(CN(Cc3cnn(C(F)F)c3)C2)C1` [compound 628] had a 50% inhibitory concentration (IC50) of 149 nM.

In turn, `N#Cc1ccc(CC2CC3(C2)CN(C(=O)N2CC4(CC(c5nc(C6(O)CC6)n[nH]5)C4)C2)C3)cc1C(F)(F)F` [compound 629] showed an IC50 of 1.45 nM.

On to `O=C(N1CC2(CC(c3cnc(C(F)(F)F)nc3)C2)C1)N1CC2(CC(c3nnc(C4CC4)[nH]3)C2)C1` [compound 630], for which the IC50 was 1.36 nM.

Turning to `O=C(N1CC2(CC(Oc3cnn(CC(F)(F)F)c3)C2)C1)N1CC2(CC(c3nc(C4CC4)n[nH]3)C2)C1` [compound 631], the half-maximal inhibitory concentration (IC50) worked out at 10.7 nM.

`CS(=O)(=O)c1cc(C(F)(F)F)ccc1CC1CC2(C1)CN(C(=O)N1CC3(CC(c4ncn[nH]4)C3)C1)C2` [compound 633]: inhibition was half-maximal at 1310 nM (IC50).

`O=C(N1CC2(CC(Cn3cc(C(F)(F)F)cn3)C2)C1)N1CC2(CC(c3nc(C4COC4)n[nH]3)C2)C1` [compound 634]: the IC50 came to 104 nM.

Turning to `O=C(N1CC(c2ccc(C3(C(F)(F)F)CC3)cc2)C1)N1CC2(CC(c3ncn[nH]3)C2)C1` [compound 635], half-maximal inhibition (IC50) was put at 950 nM.

For `O=C(N1CC2(CC(c3nc(C4CC4)n[nH]3)C2)C1)N1CC2(CN(Cc3nc(C4CC4)ns3)C2)C1` [compound 637], the 50% inhibitory concentration (IC50) is 7.44 nM.

For `N=S(=O)(c1ccc(C2CN(C(=O)N3CC4(CC(c5nc(C6CC6)n[nH]5)C4)C3)C2)cc1)C(F)(F)F` (stereo not shown) [compound 638], it took 0.52 nM to reach half-maximal inhibition (IC50).

`N=S(=O)(c1cccc(CC2CC3(C2)CN(C(=O)N2CC4(CC(c5nc(C6(O)CC6)n[nH]5)C4)C2)C3)c1)C(F)(F)F` (stereo not shown) [compound 639] returned a 50% inhibitory concentration (IC50) of 0.21 nM.

`Cc1c(CN2CC3(C2)CN(C(=O)N2CC4(CC(c5nc(C6CC6)n[nH]5)C4)C2)C3)cnn1CC(F)(F)F` [compound 640] gave a half-maximal inhibitory concentration (IC50) of 43.7 nM.

The compound `O=C(N1CC2(CC(c3nc(C4CC4)n[nH]3)C2)C1)N1CC2(CN(Cc3ncc(C(F)(F)F)[nH]3)C2)C1` [compound 641] displayed an IC50 of 67.4 nM.

Take `O=C(N1CC2(CC(c3nc(C4CC4)n[nH]3)C2)C1)N1CC2(CN(Cc3cnc(C(F)(F)F)o3)C2)C1` [compound 642]: half-maximal inhibition (IC50) required 27.5 nM.

Turning to `O=C(N1CC2(CC(c3nc(C4(F)CC4)n[nH]3)C2)C1)N1CC2(CN(Cc3nc(C(F)(F)F)cs3)C2)C1` [compound 643], inhibition was half-maximal at 6.67 nM (IC50).

On to `O=C(N1CC2(CC(Cc3cc(C4CC4)n[nH]3)C2)C1)N1CC2(CC(c3nc(C4CC4)n[nH]3)C2)C1` [compound 644], for which the 50% inhibitory concentration (IC50) amounted to 0.22 nM.

Turning to `O=C(N1CC2(CC(Cc3ccc4ncnn4c3)C2)C1)N1CC2(CC(c3nc(C4CC4)n[nH]3)C2)C1` [compound 645], the IC50 worked out at 6.54 nM.

As for `O=C(N1CC(c2ccc(N3CC(O)(C(F)(F)F)C3)nc2)C1)N1CC2(CC(c3nc(C4CC(F)(F)C4)n[nH]3)C2)C1` [compound 646], the midpoint of inhibition, the IC50, lay at 424 nM.

Compound `O=C(N1CC2(CC(Cc3ncc(C(F)(F)F)cn3)C2)C1)N1CC2(CC(c3nc(C4(F)CC4)n[nH]3)C2)C1` [compound 647] yielded a half-inhibitory concentration (IC50) of 0.97 nM.

In the case of `N=S(=O)(c1cc(F)cc(CC2CC3(C2)CN(C(=O)N2CC4(CC(c5nc(C6CC6)n[nH]5)C4)C2)C3)c1)C(F)(F)F` (stereo not shown) [compound 649], half-maximal inhibition (IC50) required 0.12 nM.

`Cn1nc(C(F)(F)F)cc1CN1CC2(C1)CN(C(=O)N1CC3(CC(c4nc(C5CC5)n[nH]4)C3)C1)C2` [compound 650] gave a concentration for half-maximal inhibition (IC50) of 9.74 nM.

Turning to `O=C(N1CC2(CC(c3nc(C4CC4)n[nH]3)C2)C1)N1CC2(CN(Cc3cnc(C(F)F)s3)C2)C1` [compound 651], the IC50 amounted to 9.48 nM.

On to `O=C(N1CC2(CC(Cc3ccc(S(=O)(=O)C(F)(F)F)cn3)C2)C1)N1CC2(CC(c3nc(C4(F)CC4)n[nH]3)C2)C1` [compound 652], for which the IC50 amounted to 0.19 nM.

Consider `O=C(N1CC2(CC(c3nc(C4(O)CC4)n[nH]3)C2)C1)N1CC2(CC[C@H](Cc3ccc(S(=O)(=O)C(F)(F)F)cc3)C2)C1` [compound 653], for which the IC50 worked out at 1 nM.

For the compound `O=C(N1CC2(CC(Cc3cc(F)cc(S(=O)(=O)C(F)(F)F)c3)C2)C1)N1CC2(CC(c3nc(C4CC4)n[nH]3)C2)C1` [compound 654], the midpoint of inhibition, the IC50, lay at 0.04 nM.

For the compound `O=C(N1CC2(CC(c3nc(C4CC(F)(F)C4)n[nH]3)C2)C1)N1CC2(CN(Cc3sncc3C(F)(F)F)C2)C1` [compound 655], it took 557 nM to reach half-maximal inhibition (IC50).

In turn, `O=C(N1CC2(CC(c3nc(C4CC4)n[nH]3)C2)C1)N1CC2(CN(Cc3ccnn3C(F)(F)F)C2)C1` [compound 656] displayed an IC50 of 39.7 nM.

In turn, `N=S(=O)(c1cccc(CC2CC3(C2)CN(C(=O)N2CC4(CC(c5nc(C6CC(F)(F)C6)n[nH]5)C4)C2)C3)c1)C(F)(F)F` (stereo not shown) [compound 657] showed a half-inhibitory concentration (IC50) of 17.2 nM.

In turn, `Cn1ncc(C(F)(F)F)c1CN1CC2(C1)CN(C(=O)N1CC3(CC(c4nc(C5CC(F)(F)C5)n[nH]4)C3)C1)C2` [compound 658] came in with a 50% inhibitory concentration (IC50) of 412 nM.

`CC(C)(C)c1c[nH]c(CN2CC3(C2)CN(C(=O)N2CC4(CC(c5nc(C6CC6)n[nH]5)C4)C2)C3)n1` [compound 659] showed a half-maximal inhibitory concentration (IC50) of 40.9 nM.

As for `CS(=N)(=O)c1cc(CC2CC3(C2)CN(C(=O)N2CC4(CC(c5nc(C6CC6)n[nH]5)C4)C2)C3)cc(C(F)(F)F)c1` (stereo not shown) [compound 660], inhibition was half-maximal at 0.79 nM (IC50).

Regarding `O=C(N1CC2(CC(Cc3ccc(C(F)(F)F)cn3)C2)C1)N1CC2(CC(c3nc(C4CC(F)(F)C4)n[nH]3)C2)C1` [compound 661], the midpoint of inhibition, the IC50, lay at 21.9 nM.

On to `O=C(N1CC2(CC(c3nc(C4CC4)n[nH]3)C2)C1)N1CC2(CN(Cc3nc(C(F)(F)F)no3)C2)C1` [compound 662], for which the midpoint of inhibition, the IC50, lay at 11.9 nM.

As for `O=C(N1CC2(CC(c3nc(C4CC4)n[nH]3)C2)C1)N1CC2(CN(Cc3conc3C(F)(F)F)C2)C1` [compound 663], half-maximal inhibition (IC50) was put at 13.1 nM.

`Cn1ncc(C(F)(F)F)c1CN1CC2(C1)CN(C(=O)N1CC3(CC(c4nc(C5CC5)n[nH]4)C3)C1)C2` [compound 664] showed an IC50 of 2.74 nM.

`O=C(N1CC2(CC(Oc3ncc(C(F)(F)F)cc3F)C2)C1)N1CC2(CC(c3nc(C4CC4)n[nH]3)C2)C1` [compound 665] displayed an IC50 of 0.23 nM.

For `O=C(N1CC(c2cnc(N3CC[C@@H](C(F)(F)F)C3)nc2)C1)N1CC2(CC(c3nc(C4CC4)n[nH]3)C2)C1` [compound 666], the 50% inhibitory concentration (IC50) worked out at 2.2 nM.

On to `O=C(N1CC2(CC(c3nc(C4CC4)n[nH]3)C2)C1)N1CC2(CC[C@H](Cc3ccc(S(=O)(=O)C(F)(F)F)cc3)C2)C1` [compound 667], for which the IC50 was found to be 0.09 nM.

As for `N=S(=O)(c1cccc(CC2CC3(C2)CN(C(=O)N2CC4(CC(c5nc(C6CC(F)(F)C6)n[nH]5)C4)C2)C3)c1)C(F)(F)F` (stereo not shown) [compound 668], the IC50 came out at 9.75 nM.

In turn, `N#Cc1cc(C(F)(F)F)ncc1C[C@@H]1CCC2(C1)CN(C(=O)N1CC3(CC(c4nnc(C5CC5)[nH]4)C3)C1)C2` [compound 669] showed a half-maximal inhibitory concentration (IC50) of 0.65 nM.

The compound `CS(=O)(=O)c1cc(CC2CC3(C2)CN(C(=O)N2CC4(CC(c5nc(C6(O)CC6)n[nH]5)C4)C2)C3)cc(C(F)(F)F)c1` [compound 670] yielded an IC50 of 1 nM.

`O=C(N1CC2(CC(Cn3cc(C(F)(F)F)cn3)C2)C1)N1CC2(CC(c3nc(C4(O)CC4)n[nH]3)C2)C1` [compound 671]: inhibition was half-maximal at 5.55 nM (IC50).

`O=C(N1CC2(CC(c3nc(C4CC4)n[nH]3)C2)C1)N1CC2(CN(Cc3cc(C(F)(F)F)no3)C2)C1` [compound 672] yielded an IC50 of 8.31 nM.

Turning to `O=C(N1CC2(CC(Cn3ccc(C(F)(F)F)n3)C2)C1)N1CC2(CC(c3nc(C4(O)CC4)n[nH]3)C2)C1` [compound 673], half-maximal inhibition (IC50) was put at 2 nM.

The compound `O=C(N1CC(C23CC(c4ccc(F)cc4)(C2)C3)C1)N1CC2(CC(c3nc(C4(O)CC4)n[nH]3)C2)C1` [compound 674] returned an IC50 of 8.08 nM.

`O=C(N1CC2(CC(c3nc(C4CC4)n[nH]3)C2)C1)N1CC2(CN(Cc3cc(C(F)(F)F)sn3)C2)C1` [compound 675] came in with an IC50 of 8.76 nM.
